Results as given in PubChem BioAssay AID330 (DTP/NCI, 2004).
Where “and” joins values, the source holds several entries; their conditions need not be identical. Equal entries are not always repeated. Toxic doses and inconclusive results are not listed.

Tested on: P388 leukemia ip, CD2F1 mice, survival T/C
Assay: NCI In Vivo Anticancer Drug Screen. Data for tumor model P388 Leukemia (intraperitoneal) in CD2F1 (CDF1) mice
Details: endpoint: median survival time, higher = longer survival
Outline: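 Mice carrying the transplanted tumor received test compound or vehicle. Survival was recorded in each group, and the value is the treated-group measurement divided by that of the vehicle-treated control group.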

[1] = dose: 6.25 mg/kg/injection, schedule: Q01DX005 (ip), vehicle: saline with Tween-80
[2] = dose: 12.5 mg/kg/injection, schedule: Q01DX005 (ip), vehicle: saline with Tween-80
[3] = dose: 50.0 mg/kg/injection, schedule: Q01DX009 (ip), vehicle: Klucel (hydroxypropylcellulose) (HPC)
[4] = dose: 100.0 mg/kg/injection, schedule: Q01DX009 (ip), vehicle: Klucel (hydroxypropylcellulose) (HPC)
[5] = dose: 200.0 mg/kg/injection, schedule: Q01DX009 (ip), vehicle: Klucel (hydroxypropylcellulose) (HPC)
[6] = dose: 50.0 mg/kg/injection, schedule: Q01DX009 (ip), vehicle: saline with Tween-80
[7] = dose: 100.0 mg/kg/injection, schedule: Q01DX009 (ip), vehicle: saline with Tween-80
[8] = dose: 200.0 mg/kg/injection, schedule: Q01DX009 (ip), vehicle: saline with Tween-80
[9] = dose: 100.0 mg/kg/injection, schedule: Q01DX001 (ip), vehicle: Klucel (hydroxypropylcellulose) (HPC)
[10] = dose: 200.0 mg/kg/injection, schedule: Q01DX001 (ip), vehicle: Klucel (hydroxypropylcellulose) (HPC)
[11] = dose: 400.0 mg/kg/injection, schedule: Q01DX001 (ip), vehicle: Klucel (hydroxypropylcellulose) (HPC)
[12] = dose: 100.0 mg/kg/injection, schedule: Q04DX002 (ip), vehicle: saline with Tween-80

O=C(NC1CCOC1=O)c1ccc(N=C=S)cc1 (stereo not drawn)
T/C (dose: 25.0 mg/kg/injection, schedule: Q04DX003 (ip), vehicle: Klucel (hydroxypropylcellulose) (HPC)): 104 % of control
T/C (dose: 50.0 mg/kg/injection, schedule: Q04DX003 (ip), vehicle: Klucel (hydroxypropylcellulose) (HPC)): 107 % of control
T/C (dose: 100.0 mg/kg/injection, schedule: Q04DX003 (ip), vehicle: Klucel (hydroxypropylcellulose) (HPC)): 101 % of control and 106 % of control

Cc1ccc(N2C(=O)CC3(CCCC3)C2=O)cc1[N+](=O)[O-]
T/C (dose: 100.0 mg/kg/injection, schedule: Q04DX002 (ip), vehicle: Klucel (hydroxypropylcellulose) (HPC)): 106 % of control
T/C (dose: 200.0 mg/kg/injection, schedule: Q04DX002 (ip), vehicle: Klucel (hydroxypropylcellulose) (HPC)): 105 % of control
T/C (dose: 400.0 mg/kg/injection, schedule: Q04DX002 (ip), vehicle: Klucel (hydroxypropylcellulose) (HPC)): 97 % of control

O=Cc1cccc2[nH]ccc12
T/C (dose: 50.0 mg/kg/injection, schedule: Q01DX005 (ip), vehicle: Klucel (hydroxypropylcellulose) (HPC)): 102 % of control
T/C (dose: 100.0 mg/kg/injection, schedule: Q01DX005 (ip), vehicle: Klucel (hydroxypropylcellulose) (HPC)): 99 % of control
T/C (dose: 200.0 mg/kg/injection, schedule: Q01DX005 (ip), vehicle: Klucel (hydroxypropylcellulose) (HPC)): 96 % of control

COc1nc2nc(SC(CC(=O)O)C(=O)c3ccc(Cl)cc3)[nH]c2c2ccccc12 (stereo not drawn)
T/C (dose: 60.0 mg/kg/injection, schedule: Q01DX005 (ip), vehicle: saline with Tween-80): 97 % of control
T/C (dose: 120.0 mg/kg/injection, schedule: Q01DX005 (ip), vehicle: saline with Tween-80): 95 % of control
T/C (dose: 240.0 mg/kg/injection, schedule: Q01DX005 (ip), vehicle: saline with Tween-80): 92 % of control

C[n+]1cc(-c2ccccc2)cc(-c2ccccc2)c1
T/C (dose: 3.12 mg/kg/injection, schedule: Q01DX005 (ip), vehicle: Klucel (hydroxypropylcellulose) (HPC)): 104 % of control
T/C (dose: 3.12 mg/kg/injection, schedule: Q01DX005 (ip), vehicle: saline): 103 % of control
T/C (dose: 6.25 mg/kg/injection, schedule: Q01DX005 (ip), vehicle: Klucel (hydroxypropylcellulose) (HPC)): 109 % of control
T/C [1]: 105 % of control
T/C (dose: 6.25 mg/kg/injection, schedule: Q01DX005 (ip), vehicle: saline): 97 % of control
T/C (dose: 12.5 mg/kg/injection, schedule: Q01DX005 (ip), vehicle: Klucel (hydroxypropylcellulose) (HPC)): 104 % of control
T/C [2]: 100 % of control
T/C (dose: 12.5 mg/kg/injection, schedule: Q01DX005 (ip), vehicle: saline): 96 % of control
T/C (dose: 25.0 mg/kg/injection, schedule: Q01DX005 (ip), vehicle: saline with Tween-80): 96 % of control

Cc1cnc(C)n2c(C)nnc12
T/C (dose: 100.0 mg/kg/injection, schedule: Q04DX003 (ip), vehicle: saline): 99 % of control
T/C (dose: 200.0 mg/kg/injection, schedule: Q04DX003 (ip), vehicle: saline): 96 % of control

O=C(c1ccccc1)C(c1ccccc1)n1nccc1-c1ccccc1 (stereo not drawn)
T/C [3]: 105 % of control
T/C [4]: 105 % of control
T/C [5]: 99 % of control

C/C(=N\NC(=S)N1CCN(c2ccccc2)CC1)c1cnccn1
T/C (dose: 1.56 mg/kg/injection, schedule: Q01DX005 (ip), vehicle: saline with Tween-80): 103 % of control
T/C (dose: 3.13 mg/kg/injection, schedule: Q01DX005 (ip), vehicle: saline with Tween-80): 105 % of control
T/C [1]: 111 % of control and 93 % of control
T/C [2]: 109 % of control

COc1ccc(OC)c2c(=O)cc(C)[nH]c12
T/C (dose: 16.5 mg/kg/injection, schedule: Q01DX009 (ip), vehicle: saline with Tween-80): 107 % of control and 112 % of control
T/C (dose: 25.0 mg/kg/injection, schedule: Q01DX009 (ip), vehicle: saline with Tween-80): 107 % of control and 111 % of control and 121 % of control
T/C (dose: 37.5 mg/kg/injection, schedule: Q01DX009 (ip), vehicle: saline with Tween-80): 113 % of control and 124 % of control
T/C [6]: 114 % of control
T/C [7]: 107 % of control
T/C [8]: 107 % of control

O=C1C(N=Nc2ccc(Br)cc2)Sc2nc3ccccc3n21 (stereo not drawn)
T/C (dose: 60.0 mg/kg/injection, schedule: Q01DX005 (ip), vehicle: Klucel (hydroxypropylcellulose) (HPC)): 89 % of control
T/C (dose: 120.0 mg/kg/injection, schedule: Q01DX005 (ip), vehicle: Klucel (hydroxypropylcellulose) (HPC)): 89 % of control

O=c1c2ccccc2nc2n1OCC2
T/C (dose: 50.0 mg/kg/injection, schedule: Q01DX009 (ip), vehicle: saline): 103 % of control
T/C (dose: 100.0 mg/kg/injection, schedule: Q01DX009 (ip), vehicle: saline): 111 % of control
T/C (dose: 200.0 mg/kg/injection, schedule: Q01DX009 (ip), vehicle: saline): 111 % of control

C(=C\c1cc2cc(C3=NCCN3)ccc2o1)/c1cc2cc(C3=NCCN3)ccc2o1
T/C (dose: 25.0 mg/kg/injection, schedule: Q04DX003 (ip), vehicle: suspension in saline): 154 % of control
T/C (dose: 50.0 mg/kg/injection, schedule: Q04DX003 (ip), vehicle: suspension in saline): 152 % of control
T/C (dose: 100.0 mg/kg/injection, schedule: Q04DX003 (ip), vehicle: suspension in saline): 101 % of control

O=C(O)CCC(C(=O)O)N(Cc1ccccc1)Cc1ccccc1 (stereo not drawn)
T/C [9]: 105 % of control
T/C [10]: 100 % of control
T/C [11]: 105 % of control

C=CCc1ccccc1/C=N/NS(=O)(=O)c1ccc(C)cc1
T/C [12]: 100 % of control
T/C (dose: 200.0 mg/kg/injection, schedule: Q04DX002 (ip), vehicle: saline with Tween-80): 98 % of control
T/C (dose: 400.0 mg/kg/injection, schedule: Q04DX002 (ip), vehicle: saline with Tween-80): 97 % of control

OC(Nc1ncccn1)C(Cl)(Cl)Cl (stereo not drawn)
T/C [6]: 104 % of control
T/C [7]: 100 % of control
T/C [8]: 100 % of control

C1=C2COCOC3CCN(C1)C23 (stereo not drawn)
T/C (dose: 34.32 mg/kg/injection, schedule: Q01DX005 (ip), vehicle: saline): 101 % of control
T/C (dose: 68.64 mg/kg/injection, schedule: Q01DX005 (ip), vehicle: saline): 107 % of control
T/C (dose: 137.28 mg/kg/injection, schedule: Q01DX005 (ip), vehicle: saline): 108 % of control

CCCSc1ccc([N+](=O)[O-])cc1
T/C (dose: 25.0 mg/kg/injection, schedule: Q04DX002 (ip), vehicle: saline with Tween-80): 103 % of control
T/C (dose: 50.0 mg/kg/injection, schedule: Q04DX002 (ip), vehicle: saline with Tween-80): 104 % of control
T/C [12]: 106 % of control

O=C(NCCNC(=S)Nc1ccccc1)C(=O)NCCNC(=S)Nc1ccccc1
T/C (dose: 50.0 mg/kg/injection, schedule: Q01DX001 (ip), vehicle: Klucel (hydroxypropylcellulose) (HPC)): 91 % of control
T/C [9]: 91 % of control
T/C [10]: 91 % of control

CC(=O)N=c1sccn1CC(O)c1ccccc1 (stereo not drawn)
T/C [3]: 105 % of control
T/C [4]: 99 % of control
T/C [10]: 118 % of control
T/C [5]: 108 % of control
T/C [11]: 100 % of control

COC(=O)C1=C(C(=O)OC)[C@@H]2CCC[C@H]1[C@H]1[C@@H]2N=NN1c1ccccc1
T/C (dose: 50.0 mg/kg/injection, schedule: Q01DX005 (ip), vehicle: saline with Tween-80): 100 % of control
T/C (dose: 100.0 mg/kg/injection, schedule: Q01DX005 (ip), vehicle: saline with Tween-80): 98 % of control
T/C (dose: 200.0 mg/kg/injection, schedule: Q01DX005 (ip), vehicle: saline with Tween-80): 100 % of control

CCCCCCCCCCCCCCCC(=O)OC12CC(C)C3(O)C(C=C(CO)CC4(O)C(=O)C(C)=CC43)C1C2(C)CO (stereo not drawn)
T/C (dose: 0.03 mg/kg/injection, schedule: Q01DX009 (ip), vehicle: saline with Tween-80): 119 % of control
T/C (dose: 0.06 mg/kg/injection, schedule: Q01DX009 (ip), vehicle: saline with Tween-80): 100 % of control
T/C (dose: 0.9 micrograms/kg/injection, schedule: Q01DX009 (ip), vehicle: other): 100 % of control
T/C (dose: 1.8 micrograms/kg/injection, schedule: Q01DX009 (ip), vehicle: other): 99 % of control
T/C (dose: 3.7 micrograms/kg/injection, schedule: Q01DX009 (ip), vehicle: other): 101 % of control
T/C (dose: 7.5 micrograms/kg/injection, schedule: Q01DX009 (ip), vehicle: other): 101 % of control
T/C (dose: 15.0 micrograms/kg/injection, schedule: Q01DX009 (ip), vehicle: other): 104 % of control
T/C (dose: 30.0 micrograms/kg/injection, schedule: Q01DX009 (ip), vehicle: other): 104 % of control
